Laboratory results as given in ChEMBL document CHEMBL1201862, “PubChem BioAssay data set” (2004).
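Five concentrations, 48 hours, 96-well plates. The concentration for 50% growth inhibition is given as GI50.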 Activity calls are given as the source filed them. Cut-off read from the data, not from the text of the source: active = GI50 up to about 1.1 µM and inactive = higher.

How the values were obtained:
Experiment in all cases: growth of human tumour cells (NCI), 48 h
[1] = tested on: IGROV-1
[2] = tested on: HCT-116
[3] = tested on: OVCAR-3
[4] = tested on: Malme-3M
[5] = tested on: RPMI-8226
[6] = tested on: A498
[7] = tested on: SK-MEL-5
[8] = tested on: A549
[9] = tested on: PC-3
[10] = tested on: NCI-H226
[11] = tested on: SNB-75
[12] = tested on: UACC-62
[13] = tested on: M14
[14] = tested on: K562
[15] = tested on: ACHN
[16] = tested on: NCI-H23
[17] = tested on: SF-268
[18] = tested on: EKVX
[19] = tested on: UACC-257
[20] = tested on: NCI/ADR-RES

Measured: GI50

C[C@]12CC[C@H](O)CC1=CC[C@@H]1[C@@H]2CC[C@]2(C)C(=O)/C(=C/c3ccc([N+](=O)[O-])cc3)C[C@@H]12
inactive: [1] 8.73 µM | [2] 13.7 µM | [3] 15.2 µM | [4] 20.1 µM | [5] > 100 µM | [6] 13.5 µM | [7] 16.3 µM | [8] 13.3 µM | [9] 10.4 µM | [10] 2.96 µM | [11] 3.52 µM | [12] 65 µM | [13] 26.8 µM | [14] 59.6 µM | [15] 13.2 µM | [16] 18.8 µM | [17] 6.85 µM | [18] 8.91 µM | [19] 21.1 µM | [20] 16.2 µM

CC(NC(=O)/C(C#N)=C/c1ccc2[nH]ccc2c1)c1ccccc1 (stereo not given)
inactive: [1] 17.2 µM | [2] 14.9 µM | [3] 24.9 µM | [4] 28.2 µM | [5] 21.6 µM | [6] 16.5 µM | [7] 18.2 µM | [8] 24 µM | [9] 20.3 µM | [10] 24.1 µM | [11] 31.4 µM | [12] 15.3 µM | [13] 20.6 µM | [14] 23.8 µM | [15] 21.6 µM | [16] 19.4 µM | [17] 21.5 µM | [18] 22 µM | [19] 21.3 µM | [20] 28.8 µM

CCCCC/C=C1\CCC(CN2CCOCC2)C1=O (stereo not given)
inactive: [1] 13.8 µM | [2] 9.35 µM | [3] 5.9 µM | [4] 9.62 µM | [6] 17.7 µM | [7] 15.4 µM | [8] 20.7 µM | [9] 16.9 µM | [10] 16.9 µM | [11] 14.8 µM | [12] 12.4 µM | [13] 6.7 µM | [14] 2.36 µM | [15] 15.5 µM | [16] 11.2 µM | [17] 12.2 µM | [18] 17.5 µM | [19] 9.79 µM | [20] 3.94 µM
active: [5] 0.449 µM

N=C(N)NCCCS(=O)(=O)Nc1ccc(Nc2c3ccccc3nc3cc([N+](=O)[O-])ccc23)cc1
inactive: [1] 18.4 µM | [2] 16.5 µM | [3] 15.6 µM | [4] 10.1 µM | [5] 3.8 µM | [6] 17.5 µM | [7] 5.55 µM | [8] 5.31 µM | [9] 11.7 µM | [10] 11.7 µM | [11] 13 µM | [12] 12.1 µM | [13] 16.4 µM | [14] 22.3 µM | [15] 21.4 µM | [16] 4.65 µM | [17] 6.19 µM | [18] 15.7 µM | [19] 22.5 µM | [20] 19.6 µM

Nc1nc(F)nc2c1ncn2C1OC(CO)C(O)C1O (stereo not given)
inactive: [1] > 100 µM | [2] 39.5 µM | [3] > 100 µM | [4] 32.5 µM | [5] > 100 µM | [6] > 60.3 µM | [7] 55.5 µM | [8] 43 µM | [9] 30.5 µM | [10] > 100 µM | [11] > 100 µM | [12] 58.6 µM | [13] 8.53 µM | [14] > 76.6 µM | [15] 34 µM | [16] 13.3 µM | [17] > 61.7 µM | [18] > 100 µM | [19] > 90.8 µM | [20] 3.78 µM
